Results: patent US7157495B2, “Hexahydrofuro[2,3-B]furan-3-YL-N-{3-[(1,3-benzodioxol-5-ylsulfonyl)(isobutyl)amino]-1-benzyl-2-hydroxypropyl}carbamate as retroviral protease inhibitor” (Tibotec Pharmaceuticals, Ltd., priority 1999, dated 2007)
pIC50: −log10 of the molar value. Like-named read-outs stand apart in the source and are kept apart here.

Legend:
Format in all cases: cell-based
[1] = system: HIV strain r13034; assay: Antiviral spectrum, protease inhibitor resistant strain; conditions: Human immunodeficiency virus 1, strain r13034; L10I, M36I, I54V, L63P, A71V, I84V
Experimental: (§1) HIV- or mock-infected MT4 cells were incubated for five days in the presence of various concentrations of the inhibitor. At the end of the incubation period, all HIV-infected cells have been killed by the replicating virus in the control cultures in the absence of any inhibitor. Cell viability is measured by measuring the concentration of MTT, a yellow, water soluble tetrazolium dye that is converted to a purple, water insoluble formazan in the mitochondria of living cells only. Upon solubilization of the resulting formazan crystals with isopropanol, the absorbance of the solution is monitored at 540 nm. The values correlate directly to the number of living cells remaining in the culture at the completion of the five day incubation. The inhibitory activity of the compound was monitored on the virus-infected cells and was expressed as IC50 and IC90. These values represent the amount of the compound required to protect 50% and 90%, respectively, of the cells from the cytopathogenic effect of the virus. The toxicity of the compound was measured on the mock-infected cells and was expressed as CC50, which represents the concentration of compound required to inhibit the growth of the cells by 50%. The select index (SI) (ratio CC50/IC50) is an indication of the selectivity of the anti-HIV activity of the inhibitor.
(§2) Because of the increasing emergence of drug resistant HIV strains, compound 13 and compound 14 were tested for its potency against HIV strains harbouring several mutations. These mutations are associated with resistance to protease inhibitors and result in viruses that show various degrees of phenotypic cross-resistance to five of the currently commercially available drugs (Saquinavir, Ritonavir, Nelfinavir, Indinavir and Amprenavir).

[2] = system: HIV strain r13022; assay: as above; conditions: Human immunodeficiency virus 1, strain r13022; K20R, M36I, M46I/M, 154V, L63P, A71V/I, V82T, L90M
Experimental: as §1, §2

[3] = system: HIV strain r13020; assay: as above; conditions: Human immunodeficiency virus 1, strain r13020; L10I, K20R, M36I, 154V, A71V, V82T, 184V
Experimental: as §1, §2

[4] = system: HIV strain r13026; assay: as above; conditions: Human immunodeficiency virus 1, strain r13026; L10I, M46I, I54V, L63P, A71V, V82T, I84V
Experimental: as §1, §2

[5] = system: HIV strain r13035; assay: as above; conditions: Human immunodeficiency virus 1, strain r13035; D30N, L63P, V77I, N88D
Experimental: as §1, §2

[6] = system: HIV strain r13023; assay: as above; conditions: L10I, M36I/M, I54V/I, L63P, A71V, G73S, I84V, L90M
Experimental: as §1, §2

[7] = system: HIV strain r13021; assay: as above; conditions: L10I, K20R, L24I, M36I, I54V, L63P, A71V, V82T, I84V
Experimental: as §1, §2

[8] = system: HIV strain r13031; assay: as above; conditions: Human immunodeficiency virus 1, strain r13031; G48V, I54V, V77I, V82A, L90M/L
Experimental: as §1, §2

[9] = system: HIV strain r13025; assay: as above; conditions: Human immunodeficiency virus 1, strain r13025; L10I, M46I, L63P, A71V, I84V
Experimental: as §1, §2

[10] = system: HIV strain r13029; assay: as above; conditions: Human immunodeficiency virus 1, strain r13029; L10I/L, M36I, M46L, L63P, A71V, I84V, N88D, L90M
Experimental: as §1, §2

[11] = system: HIV strain r13037; assay: as above; conditions: Human immunodeficiency virus 1, strain r13037; L10I, M46I, I54V, L63P, A71T, V77I, V82A, L90M
Experimental: as §1, §2

[12] = system: HIV strain r13027; assay: as above; conditions: Human immunodeficiency virus 1, strain r13027; L10M/I, K20R, M36I, L63P, A71V, G73S, V77I, I84V, L90M
Experimental: as §1, §2

[13] = system: HIV strain r13036; assay: as above; conditions: Human immunodeficiency virus 1, strain r13036; L10I, L63P, A71V, G73S, L90M
Experimental: as §1, §2

[14] = system: HIV strain r13024; assay: as above; conditions: Human immunodeficiency virus 1, strain r13024; L10I, M36I, L63P, A71V, G73S, I84V, L90M
Experimental: as §1, §2

[15] = system: HIV strain r13033; assay: as above; conditions: Human immunodeficiency virus 1, strain r13033; L10I, M46L, I54V, L63P, A71V, V82A, L90M
Experimental: as §1, §2

[16] = system: HIV strain r13030; assay: as above; conditions: Human immunodeficiency virus 1, strain r13030; L10V/I, M36I, I54V, L63P, A71V, V82T, L90M
Experimental: as §1, §2

[17] = system: HIV-1 strain LAI; assay: Cellular anti-HIV assay in MT4 cells (MTT)
Experimental: as §1

[18] = Human immunodeficiency virus 1, strain r13023
[19] = Human immunodeficiency virus 1, strain r13021
[20] = Human immunodeficiency virus 1, MT4, strain LAI, read-out: IC50

## CC(C)CN(C[C@@H](O)[C@H](Cc1ccccc1)NC(=O)O[C@H]1CCOC1)S(=O)(=O)c1ccc(N)cc1 [AMP, Amprenavir]
[1]
  pIC50: 6.17
[2]
  pIC50: 6.74
[3]
  pIC50: 6.97
[4]
  pIC50: 6.87
[5]
  pIC50: 7.98
[6]; [18]
  pIC50: 6.66
[7]; [19]
  pIC50: 6.67
[8]
  pIC50: 7.47
[9]
  pIC50: 6.18
[10]
  pIC50: 6.67
[11]
  pIC50: 6.78
[12]
  pIC50: 6.19
[13]
  pIC50: 6.35
[14]
  pIC50: 6.74
[15]
  pIC50: 6.71
[16]
  pIC50: 7.31
[17]; [20]
  pIC50: 7.44

## CC(C)CN(CC(O)C(Cc1ccccc1)NC(=O)OC1COC2OCCC12)S(=O)(=O)c1ccc2c(c1)OCO2 (stereo not drawn) [Compound 14]
[1]
  pIC50: 8.26
[2]
  pIC50: 8.96
[3]
  pIC50: 9.10
[4]
  pIC50: 9.10
[5]
  pIC50: 9.70
[6]; strain r13023
  pIC50: 8.55
[7]; strain r13021
  pIC50: 8.82
[8]
  pIC50: 9.52
[9]
  pIC50: 7.48
[10]
  pIC50: 8.28
[11]
  pIC50: 9.30
[12]
  pIC50: 8.14
[13]
  pIC50: 8.54
[14]
  pIC50: 8.26
[15]
  pIC50: 8.96
[16]
  pIC50: 9.70
[17]; [20]
  pIC50: 9.10

## CC(C)(C)NC(=O)[C@@H]1CN(Cc2cccnc2)CCN1C[C@@H](O)C[C@@H](Cc1ccccc1)C(=O)N[C@H]1c2ccccc2C[C@H]1O [IND, Indinavir]
[1]
  pIC50: 6.20
[2]
  pIC50: 5.77
[3]
  pIC50: 5.86
[4]
  pIC50: 5.57
[5]
  pIC50: 8.13
[6]; [18]
  pIC50: 6.17
[7]; [19]
  pIC50: 5.76
[8]
  pIC50: 6.81
[9]
  pIC50: 5.90
[10]
  pIC50: 6.04
[11]
  pIC50: 6.71
[12]
  pIC50: 6.15
[13]
  pIC50: 6.20
[14]
  pIC50: 5.97
[15]
  pIC50: 6.07
[16]
  pIC50: 6.24
[17]; [20]
  pIC50: 7.56

## Cc1c(O)cccc1C(=O)N[C@@H](CSc1ccccc1)[C@H](O)CN1C[C@H]2CCCC[C@H]2C[C@H]1C(=O)NC(C)(C)C [NEL, Nelfinavir]
[1]
  pIC50: 5.70
[2]
  pIC50: 5.39
[3]
  pIC50: 5.43
[4]
  pIC50: 5.91
[5]
  pIC50: 6.44
[6]; [18]
  pIC50: 5.99
[7]; [19]
  pIC50: 5.39
[8]
  pIC50: 6.30
[9]
  pIC50: 5.04
[10]
  pIC50: 5.42
[11]
  pIC50: 6.18
[12]
  pIC50: 5.49
[13]
  pIC50: 5.49
[14]
  pIC50: 5.49
[15]
  pIC50: 5.92
[16]
  pIC50: 6.00
[17]; [20]
  pIC50: 7.48

## CC(C)c1nc(CN(C)C(=O)N[C@H](C(=O)N[C@@H](Cc2ccccc2)C[C@H](O)[C@H](Cc2ccccc2)NC(=O)OCc2cncs2)C(C)C)cs1 [RIT, Ritonavir]
[1]
  pIC50: < 5.00
[2]
  pIC50: < 5.00
[3]
  pIC50: 5.03
[4]
  pIC50: < 5.00
[5]
  pIC50: 7.51
[6]; [18]
  pIC50: 5.42
[7]; [19]
  pIC50: < 5.00
[8]
  pIC50: 6.07
[9]
  pIC50: 5.65
[10]
  pIC50: 5.44
[11]
  pIC50: 5.57
[12]
  pIC50: 5.50
[13]
  pIC50: 5.55
[14]
  pIC50: 5.55
[15]
  pIC50: 5.46
[16]
  pIC50: 5.52
[17]; [20]
  pIC50: 7.52

## CC(C)(C)NC(=O)[C@@H]1C[C@@H]2CCCC[C@@H]2CN1C[C@@H](O)[C@H](Cc1ccccc1)NC(=O)[C@H](CC(N)=O)NC(=O)c1ccc2ccccc2n1 [SAQ, Saquinavir]
[1]
  pIC50: 6.00
[2]
  pIC50: 6.18
[3]
  pIC50: 5.45
[4]
  pIC50: 5.70
[5]
  pIC50: 8.28
[6]; [18]
  pIC50: 6.11
[7]; [19]
  pIC50: 5.84
[8]
  pIC50: 6.17
[9]
  pIC50: 6.80
[10]
  pIC50: 5.58
[11]
  pIC50: 7.56
[12]
  pIC50: 5.53
[13]
  pIC50: 6.29
[14]
  pIC50: 5.68
[15]
  pIC50: 7.28
[16]
  pIC50: 6.76
[17]; Human immunodeficiency virus 1, MT4
  pIC50: 8.10
